Data from PubChem BioAssay (NCI).
“And” between values parts separate entries of the source, which are not always exact repeats. Identical values can stand only once.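 Grown in 96-well plates, cells were treated for 48 hours with each compound at five concentrations. Insufficient inhibition: endpoint recorded as highest concentration tested. GI50 = concentration required for 50% inhibition of growth. The concentration for full growth arrest is given as TGI.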

Legend:
Test in all cases: NCI-60 cell line screen, 48 h
786-0 renal = system: 786-0 renal
SF-268 CNS = system: SF-268 CNS
NCI-H23 lung = system: NCI-H23 lung
HT29 colon = system: HT29 colon
EKVX NSCLC = system: EKVX NSCLC
SF-539 CNS = system: SF-539 CNS
HCT-15 colon = system: HCT-15 colon
SNB-75 CNS = system: SNB-75 CNS
CAKI-1 renal = system: CAKI-1 renal
HOP-62 NSCLC = system: HOP-62 NSCLC

## COc1ccc(/C(=N\NC(=S)NN)C(c2ccc(OC)cc2)C2C(=O)Oc3ccccc32)cc1 (centres undefined)
786-0 renal
  GI50: > 100 µM
  TGI: > 100 µM
SF-268 CNS
  GI50: > 100 µM
  TGI: > 100 µM
NCI-H23 lung
  GI50: > 100 µM
  TGI: > 100 µM
HT29 colon
  GI50: > 100 µM
  TGI: > 100 µM
EKVX NSCLC
  GI50: > 100 µM
  TGI: > 100 µM
SF-539 CNS
  GI50: > 100 µM
  TGI: > 100 µM
HCT-15 colon
  GI50: > 100 µM
  TGI: > 100 µM
SNB-75 CNS
  GI50: > 100 µM
  TGI: > 100 µM

## CCOC(=O)c1cc2c3c(c(O)c(OC)c2s1)N(C(=O)c1cc2c4c(c(O)c(OC)c2s1)N(C(C)=O)CC4)CC3
786-0 renal
  TGI: > 100 µM
SF-268 CNS
  TGI: > 100 µM
CAKI-1 renal
  TGI: > 100 µM
HOP-62 NSCLC
  TGI: > 100 µM
NCI-H23 lung
  TGI: > 100 µM
HT29 colon
  TGI: > 100 µM
EKVX NSCLC
  TGI: > 100 µM
SF-539 CNS
  TGI: > 100 µM
SNB-75 CNS
  TGI: 67.1 µM

## COc1ccc(OC)c(Cn2cc3c(c2-c2ccccc2)CCc2cnoc2-3)c1
786-0 renal
  GI50: 6.09 µM
  TGI: > 100 µM
SF-268 CNS
  GI50: 6.24 µM
  TGI: > 100 µM
CAKI-1 renal
  GI50: 4.35 µM
  TGI: > 100 µM
HOP-62 NSCLC
  GI50: 9.13 µM
  TGI: > 100 µM
NCI-H23 lung
  GI50: 7.99 µM
  TGI: > 100 µM
HT29 colon
  GI50: 3.15 µM
  TGI: > 100 µM
EKVX NSCLC
  GI50: 6.9 µM
  TGI: > 100 µM
SF-539 CNS
  GI50: 4.24 µM
  TGI: 56.9 µM
HCT-15 colon
  GI50: 4 µM
  TGI: > 100 µM
SNB-75 CNS
  GI50: 2.89 µM
  TGI: 9.9 µM

## O=C(N/N=C/c1cccc(F)c1)c1ccncc1
786-0 renal
  TGI: > 100 µM
SF-268 CNS
  TGI: > 100 µM
HOP-62 NSCLC
  TGI: > 100 µM
NCI-H23 lung
  TGI: > 100 µM
HT29 colon
  TGI: > 100 µM
HCT-15 colon
  TGI: > 100 µM
SNB-75 CNS
  TGI: > 100 µM

## Cc1c(C(=O)O)oc2ccc([N+](=O)[O-])cc12
786-0 renal
  TGI: > 100 µM
SF-268 CNS
  TGI: > 100 µM
CAKI-1 renal
  TGI: > 100 µM
HOP-62 NSCLC
  TGI: > 100 µM
NCI-H23 lung
  TGI: > 100 µM
HT29 colon
  TGI: > 100 µM
EKVX NSCLC
  TGI: > 100 µM
SF-539 CNS
  TGI: > 100 µM
HCT-15 colon
  TGI: > 100 µM

## COc1cc2c(cc1OC)C(C(=O)c1cccc(OC)c1OC)C(=O)N(C)CC2 (centres undefined)
786-0 renal
  TGI: > 100 µM
SF-268 CNS
  TGI: > 100 µM
CAKI-1 renal
  TGI: > 100 µM
HOP-62 NSCLC
  TGI: > 100 µM
NCI-H23 lung
  TGI: > 100 µM
HT29 colon
  TGI: > 100 µM
HCT-15 colon
  TGI: > 100 µM
SNB-75 CNS
  TGI: > 100 µM

## Cc1c2ccccc2cc2ccc3oc([N+](=O)[O-])cc3c12
786-0 renal
  TGI: > 100 µM
SF-268 CNS
  TGI: > 100 µM
CAKI-1 renal
  TGI: > 100 µM
HOP-62 NSCLC
  TGI: > 100 µM
HT29 colon
  TGI: > 100 µM
EKVX NSCLC
  TGI: > 100 µM
SF-539 CNS
  TGI: > 100 µM
HCT-15 colon
  TGI: > 100 µM
SNB-75 CNS
  TGI: > 100 µM

## Cn1cc(C2=C(c3cn(C4CCN(Cc5ccccn5)CC4)c4ccccc34)C(=O)NC2=O)c2ccccc21
786-0 renal
  GI50: 8.43 µM
  TGI: > 91.1 µM
SF-268 CNS
  GI50: > 36.8 µM
  TGI: > 100 µM
CAKI-1 renal
  GI50: > 21.6 µM
  TGI: > 100 µM
HOP-62 NSCLC
  GI50: 12.1 µM
  TGI: 54.9 µM
NCI-H23 lung
  GI50: 6.31 µM
  TGI: > 100 µM
HT29 colon
  GI50: 2.4 µM
  TGI: > 100 µM
SF-539 CNS
  GI50: 3.03 µM
  TGI: > 100 µM
HCT-15 colon
  GI50: 3.44 µM
  TGI: > 100 µM
SNB-75 CNS
  GI50: 0.358 µM
  TGI: 9.74 µM

## CCOC(=O)NC(=O)c1cn(CCN2CCN(C(=O)CCCCCCCCCCC(=O)N3CCN(CCn4cc(C(=O)NC(=O)OCC)c(=O)[nH]c4=O)CC3)CC2)c(=O)[nH]c1=O
786-0 renal
  TGI: > 100 µM
SF-268 CNS
  TGI: > 100 µM
CAKI-1 renal
  TGI: > 100 µM
HOP-62 NSCLC
  TGI: > 100 µM
NCI-H23 lung
  TGI: > 100 µM
HT29 colon
  TGI: > 100 µM
SF-539 CNS
  TGI: > 100 µM
SNB-75 CNS
  TGI: > 100 µM

## CC(=O)N1CCC2(c3ccccc3N(C(C)=O)C2c2ccc(O)cc2)C1C(=O)O (centres undefined)
786-0 renal
  TGI: > 100 µM
SF-268 CNS
  TGI: > 100 µM
HOP-62 NSCLC
  TGI: > 100 µM
NCI-H23 lung
  TGI: > 100 µM
HT29 colon
  TGI: > 100 µM
EKVX NSCLC
  TGI: > 100 µM
SF-539 CNS
  TGI: > 100 µM
SNB-75 CNS
  TGI: > 100 µM

## CCN(C(=O)/C=C/c1ccco1)c1ccccc1
786-0 renal
  TGI: > 100 µM
SF-268 CNS
  TGI: > 100 µM
CAKI-1 renal
  TGI: > 100 µM
HOP-62 NSCLC
  TGI: > 100 µM
NCI-H23 lung
  TGI: > 100 µM
HT29 colon
  TGI: > 100 µM
EKVX NSCLC
  TGI: > 100 µM
HCT-15 colon
  TGI: > 100 µM
SNB-75 CNS
  TGI: > 100 µM

## CSC1=Nc2ccccc2N=C(c2ccc(Cl)cc2)C1
786-0 renal
  TGI: > 100 µM
SF-268 CNS
  TGI: > 100 µM
CAKI-1 renal
  TGI: > 100 µM
HOP-62 NSCLC
  TGI: > 100 µM
NCI-H23 lung
  TGI: > 100 µM
HT29 colon
  TGI: 90 µM
EKVX NSCLC
  TGI: > 100 µM
SF-539 CNS
  TGI: > 100 µM
HCT-15 colon
  TGI: > 100 µM

## C[N+](C)(C)CC1CCCCC1O (centres undefined)
786-0 renal
  TGI: > 100 µM
SF-268 CNS
  TGI: > 100 µM
CAKI-1 renal
  TGI: > 100 µM
HOP-62 NSCLC
  TGI: > 100 µM
NCI-H23 lung
  TGI: > 100 µM
HT29 colon
  TGI: > 100 µM
SF-539 CNS
  TGI: > 100 µM
HCT-15 colon
  TGI: > 100 µM
SNB-75 CNS
  TGI: > 100 µM

## O=C(O)c1ccccc1/C=N/N=C1c2ccccc2-c2ccccc21
786-0 renal
  TGI: > 100 µM
SF-268 CNS
  TGI: 77.1 µM
CAKI-1 renal
  TGI: > 100 µM
HOP-62 NSCLC
  TGI: > 100 µM
NCI-H23 lung
  TGI: > 100 µM
HT29 colon
  TGI: > 100 µM
EKVX NSCLC
  TGI: > 100 µM
SF-539 CNS
  TGI: > 100 µM
HCT-15 colon
  TGI: > 100 µM

## N/N=C1\C(=O)N(CCc2ccccc2)C(=O)C1C(=O)NCCc1ccccc1 (centres undefined)
786-0 renal
  TGI: > 100 µM
SF-268 CNS
  TGI: > 100 µM
CAKI-1 renal
  TGI: > 100 µM
NCI-H23 lung
  TGI: > 100 µM
HT29 colon
  TGI: > 100 µM
EKVX NSCLC
  TGI: > 100 µM
SF-539 CNS
  TGI: > 100 µM
SNB-75 CNS
  TGI: > 100 µM

## CC(C)(C)c1cc(C=C(C#N)C#N)cc(C(C)(C)C)c1O
786-0 renal
  GI50: 0.393 µM
  TGI: 10.9 µM and 16.4 µM
SF-268 CNS
  GI50: 0.475 µM
  TGI: > 241 µM
HOP-62 NSCLC
  TGI: 6.87 µM and 1.65 µM
NCI-H23 lung
  GI50: 0.194 µM
HT29 colon
  GI50: 0.33 µM
  TGI: 7.81 µM and 10.6 µM
EKVX NSCLC
  GI50: 0.518 µM and 0.825 µM
  TGI: 46.3 µM
SF-539 CNS
  GI50: 0.376 µM
  TGI: 10.2 µM and 3.24 µM
HCT-15 colon
  TGI: 14.1 µM and 19.9 µM
SNB-75 CNS
  GI50: 0.194 µM

## C=C1C(=O)O[C@H]2[C@H]1CC/C(C=Nc1c(N)cc(C(F)(F)F)cc1Br)=C\CC[C@@]1(C)O[C@@H]21
786-0 renal
  GI50: 2.14 µM
  TGI: 3.91 µM
SF-268 CNS
  GI50: 1.4 µM
  TGI: 3.34 µM
HOP-62 NSCLC
  GI50: 2.17 µM
  TGI: 4.82 µM
NCI-H23 lung
  GI50: 1.84 µM
  TGI: 4.41 µM
HT29 colon
  GI50: 1.63 µM
  TGI: 3.13 µM
EKVX NSCLC
  GI50: 1.84 µM
  TGI: 5.1 µM
SF-539 CNS
  GI50: 1.51 µM
  TGI: 2.87 µM
HCT-15 colon
  GI50: 1.55 µM
  TGI: 4.24 µM
SNB-75 CNS
  GI50: 1.27 µM
  TGI: 3.67 µM

## COc1ccc(CN2CCC/C=C/CC(Cl)(Cl)C2=O)cc1
786-0 renal
  TGI: > 100 µM
SF-268 CNS
  TGI: > 100 µM
CAKI-1 renal
  TGI: > 100 µM
HOP-62 NSCLC
  TGI: > 100 µM
NCI-H23 lung
  TGI: 99.5 µM
HT29 colon
  TGI: > 100 µM
SF-539 CNS
  TGI: > 100 µM
HCT-15 colon
  TGI: > 100 µM
SNB-75 CNS
  TGI: 64.8 µM

## COC(=O)C1(C(=O)OC)CC(=O)c2cc3c(cc2-c2c(cc(OC)c(OC)c2OC)C1)OCO3
786-0 renal
  TGI: > 211 µM
SF-268 CNS
  TGI: > 211 µM
CAKI-1 renal
  TGI: > 211 µM
HOP-62 NSCLC
  TGI: > 211 µM
NCI-H23 lung
  TGI: > 211 µM
HT29 colon
  TGI: > 211 µM
EKVX NSCLC
  TGI: > 211 µM
SF-539 CNS
  TGI: > 211 µM
HCT-15 colon
  TGI: > 211 µM

## CN(C)C(=S)/N=c1\ssc(=S)n1Cc1ccncc1
786-0 renal
  TGI: 66 µM
SF-268 CNS
  TGI: > 100 µM
CAKI-1 renal
  TGI: 75.6 µM
HOP-62 NSCLC
  TGI: 92.2 µM
NCI-H23 lung
  TGI: 60.7 µM
EKVX NSCLC
  TGI: > 100 µM
SF-539 CNS
  TGI: 48.4 µM
HCT-15 colon
  TGI: 55.1 µM
SNB-75 CNS
  TGI: 58.5 µM

## CCC(=O)Nc1nc2c(ncn2C2OC(COC(=O)CC)C(OC(=O)CC)C2OC(=O)CC)c(=O)[nH]1 (centres undefined)
786-0 renal
  TGI: > 100 µM
SF-268 CNS
  TGI: > 100 µM
CAKI-1 renal
  TGI: > 100 µM
HOP-62 NSCLC
  TGI: > 100 µM
HT29 colon
  TGI: > 100 µM
EKVX NSCLC
  TGI: > 100 µM
SF-539 CNS
  TGI: > 100 µM
HCT-15 colon
  TGI: > 100 µM
SNB-75 CNS
  TGI: > 100 µM
